Values of other authors, collected in US20010022980A1, “Dietary supplement for individuals under stress” (Beth Israel Deaconess Medical Center, priority 1998, published 2001).

Key:
explicit memory = settings: college students; 25 grams; 90 minutes after ingestion
tetanus toxoid = settings: given during 14 days of training (glutamine 14 g)
inflammation = settings: rats
PCr = settings: athletes; about 20 g during exercise
[1] = 2 to 5 g per day
[2] = males and females; 20 g per day
[3] = 20 g per day for five days, 3 g daily for remaining 9 weeks; weight training
[4] = soldiers, 24 g in a sports bar

## phosphatidylcholine
Explicit memory
  explicit memory (serial learning task): improve explicit memory

## NCC(=O)O [glycine, reference compound]
Tetanus toxoid
  percentage of soldiers who had an induration >10 mm in response to tetanus toxoid: 30%

## CCCCC/C=C\C/C=C\C/C=C\CCCCC(=O)O [GLA, γ-linoleic acid]
inflammation
  cellular phase of inflammation (polymorphonuclear leukocyte accumulation, phagocytosis, and lysosomal enzyme activity): suppressed

## NC(=O)CC[C@H](N)C(=O)O [glutamine]
Tetanus toxoid
  percentage of soldiers who had an induration >10 mm in response to tetanus toxoid: 50%

## CN(CC(=O)O)C(=N)N [creatine]
PCr
  resynthesis of PCr after exercise: rapid resynthesis
[1]
  muscle creatine content: increases
[2]
  blood pressure: no change
  body fat: no change
  lean body mass determined by DEXA: increased
  plasma creatine kinase: no change

## CN(CC(=O)O)C(=N)N.O [creatine monohydrate]
[3]
  increase in fat free mass: 4.4%
  increase in intracellular water: 3.2%
  increase in total body water: 5%
  strength (bench press and squat exercises): significant increase
[4]
  increase in body mass: 1.5 kg
  increase in total repetitions over five sets of bench presses: 14.4%
[4]; not significant
  reduction of time to complete an obstacle course: 7.6 ± 8.2 s
[4]; p <0.05
  decrease in body fat: 0.6%
